The results in this text go back to patent US9115133B2, “Substituted fused tricyclic compounds, compositions and medicinal applications thereof” (Advinus Therapeutics Limited, priority 2011, dated 2015).

The term IC50 denotes the concentration that inhibits the measured activity by half.

Assay type in all cases: biochemical
Common to all, as to conditions: 200 μg/ml Poly Glu-Tyr (4:1), ATP 1 uM, 90 min room temperature, luminescence

Test [1] deals with T1, Recombinant JAK1 (Amino acids 850-1154) (Homo sapiens, UniProt P23458).
T1 construct: Recombinant JAK1 (Amino acids 850-1154; NM_002227.2); made in house; host or cells: baculovirus expression system (Bac-to-Bac)
T1 sequence (P23458 850-1154): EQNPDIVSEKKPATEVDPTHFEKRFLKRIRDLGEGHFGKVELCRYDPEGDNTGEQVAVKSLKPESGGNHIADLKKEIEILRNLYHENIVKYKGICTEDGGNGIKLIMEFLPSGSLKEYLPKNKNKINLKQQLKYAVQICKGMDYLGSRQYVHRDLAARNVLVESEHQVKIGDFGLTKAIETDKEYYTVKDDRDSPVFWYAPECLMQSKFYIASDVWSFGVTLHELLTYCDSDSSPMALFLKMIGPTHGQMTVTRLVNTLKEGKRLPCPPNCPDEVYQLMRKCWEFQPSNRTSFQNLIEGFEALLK
Briefly: Kinase-Glo Luminescent Kinase Assay, recombinant JAK1. The source says:
(§1) Recombinant JAK1 (Amino acids 850-1154; NM_002227.2), JAK2 (Amino acids 808-1132; NM_004972.3) and JAK3 (Amino acids 781-1124; NM_000215.3) used in the studies were expressed using Invitrogen's Bac-to-Bac baculovirus expression system according to manufacturer's instructions. Adenosine 5′-triphosphate was obtained from Sigma Aldrich chemicals (Cat # A7699). Poly Glu-Tyr (4:1) sodium salt was obtained from Sigma Aldrich (Cat # P0275), Kinase Glo® Luminescent Kinase assay kit was obtained from Promega (Cat # V6713) Kinase activity was assessed by Promega Kinase-Glo® Luminescent Kinase Assay kit using 200 μg/ml Poly Glu-Tyr (4:1) as substrate and ATP at 1 uM concentration. The reactions were carried out in 384 well plates in total reaction volume of 20 uL. Reaction mixtures contained 50 mM HEPES pH 7.4, 5 mM MgCl2, 1 mM DTT, 0.01% BSA, 0.01% Tween 20. Kinase was pre-incubated with compounds or 1% DMSO for 5 min before addition of substrate and ATP to check for inhibition. Kinase reactions were carried out at room temperature for 90 min. The reactions were stopped by adding 5 μl of Kinase Glo® reagent & 10 μl of reaction mixture followed by measuring luminescence. The luminescent signal is correlated with the amount of ATP present at the end of kinase reaction and is inversely correlated with the amount of kinase activity. For each data point, % inhibition is calculated based on uninhibited reaction (without compound) which is considered as 100% activity over no enzyme or substrate controls. Dose response data is then fit using a four parameter logistic equation using Graph-pad Prism 5 software to determine inhibition constant 50 (IC50).
For orientation: Kinase-Glo reads ATP consumption through a luciferase reaction.

In test [2] the target is T2, Recombinant JAK2 (Amino acids 808-1132) (Homo sapiens, UniProt O60674).
T2 construct: JAK2 (Amino acids 808-1132; NM_004972.3); made in house; host or cells: baculovirus expression system (Bac-to-Bac)
T2 sequence (O60674 808-1132): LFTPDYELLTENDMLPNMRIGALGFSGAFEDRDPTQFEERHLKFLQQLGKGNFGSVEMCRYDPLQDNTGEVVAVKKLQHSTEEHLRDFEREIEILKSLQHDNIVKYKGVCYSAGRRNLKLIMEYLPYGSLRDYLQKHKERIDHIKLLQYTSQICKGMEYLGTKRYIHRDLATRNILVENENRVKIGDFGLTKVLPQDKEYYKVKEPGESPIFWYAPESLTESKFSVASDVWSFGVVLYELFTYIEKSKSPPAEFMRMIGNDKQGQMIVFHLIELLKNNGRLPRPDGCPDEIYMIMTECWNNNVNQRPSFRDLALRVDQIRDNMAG
As to the kind of experiment: Kinase-Glo Luminescent Kinase Assay, recombinant JAK2.
From the text: as §1

Test [3] has as its target T3, Recombinant JAK3 (Amino acids 781-1124) (Homo sapiens, UniProt P52333).
T3 construct: JAK3 (Amino acids 781-1124; NM_000215.3); made in house; host or cells: baculovirus expression system (Bac-to-Bac)
As to the kind of experiment: Kinase-Glo Luminescent Kinase Assay, recombinant JAK3.
From the text: as §1

T3 sequence (P52333 781-1124): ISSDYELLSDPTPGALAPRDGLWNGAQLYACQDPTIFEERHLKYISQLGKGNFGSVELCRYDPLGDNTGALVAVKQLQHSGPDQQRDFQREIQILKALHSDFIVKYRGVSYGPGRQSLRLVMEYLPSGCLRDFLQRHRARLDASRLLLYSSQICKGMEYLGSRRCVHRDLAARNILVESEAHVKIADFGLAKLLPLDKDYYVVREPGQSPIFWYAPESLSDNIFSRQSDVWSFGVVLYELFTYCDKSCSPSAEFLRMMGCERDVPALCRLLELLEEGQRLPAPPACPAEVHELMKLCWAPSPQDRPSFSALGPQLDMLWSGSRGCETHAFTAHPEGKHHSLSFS

Regarding `O=C(CC(F)(F)F)N1CCC[C@H](c2ccnc3cnc4[nH]ccc4c23)C1` [Ex. 4A, (R)3,3,3-trifluoro-1-[3-(3H-pyrrolo[3,2-f][1,7]naphthyridin-9-yl)-1-piperidyl]propan-1-one], the IC50 in test [1], in test [2] and in test [3] was 1 to 20 nM throughout.
`N#CCC(=O)N1CCCC(c2ncnc3cnc4[nH]ccc4c23)C1` (centres unmarked) [Ex. 23, 3-Oxo-3-[3-(3H-3,4,6,8-tetraazacyclopenta[a]naphthalen-9-yl)-piperidin-1-yl]-propionitrile]: the IC50 in test [1], in test [2] and in test [3] was 1 to 20 nM throughout.
As for `CN(C(=O)CC(F)(F)F)C1CCCN(c2ccnc3cnc4[nH]ccc4c23)C1` (centres unmarked) [Ex. 65, 3,3,3-trifluoro-N-methyl-N-[1-(3H-pyrrolo[3,2-f][1,7]naphthyridin-9-yl)-3-piperidyl]propanamide], the IC50 in test [1], in test [2] and in test [3] was greater than 20 nM each time.
`O=C(CC(F)(F)F)N1CCC(c2ccnc3cnc4[nH]ccc4c23)C1` (centres unmarked) [Ex. 15, 3,3,3-trifluoro-1-[3-(3H-pyrrolo[3,2-f][1,7]naphthyridin-9-yl)pyrrolidin-1-yl]propan-1-one]: the IC50 in test [1] is 1 to 20 nM; in test [2], 1 to 20 nM; in test [3], greater than 20 nM.
As to `CC(C)NC(=O)C1CCN(c2ccnc3cnc4[nH]ccc4c23)C1` (centres unmarked) [Ex. 84, N-isopropyl-1-(3H-pyrrolo[3,2-f][1,7]naphthyridin-9-yl)pyrrolidine-3-carboxamide], the values for the IC50 in test [1], in test [2] and in test [3] were 1 to 20 nM, greater than 20 nM and greater than 20 nM, respectively.
On to `CC(C)CS(=O)(=O)N1CCCC(c2ncnc3cnc4[nH]ccc4c23)C1` (centres unmarked) [Ex. 30, 9-[1-(2-Methyl-propane-1-sulfonyl)-piperidin-3-yl]-3H-3,4,6,8-tetraaza-cyclopenta[a]naphthalene], for which the IC50 in test [1], in test [2] and in test [3] was greater than 20 nM throughout.
Take `c1cc(N2CCCC(OCC3CC3)C2)c2c(cnc3[nH]ccc32)n1` (centres unmarked) [Ex. 56, 9-[3-(cyclopropylmethoxy)-1-piperidyl]-3H pyrrolo[3,2f][1,7] naphthyridine]: the IC50 in test [1], in test [2] and in test [3] was 1 to 20 nM each time.
As to `N#CCC(=O)N1CC[C@H](c2ccnc3cnc4[nH]ccc4c23)C1` [Ex. 14A, (R)3-oxo-3-[3-(3H-pyrrolo[3,2-f][1,7]naphthyridin-9-yl)pyrrolidin-1-yl]propanenitrile], the IC50 in test [1], in test [2] and in test [3] was greater than 20 nM each time.
For the molecule `O=C(CC1CC1)N1CCCC(c2ncnc3cnc4[nH]ccc4c23)C1` (centres unmarked) [Ex. 25, 2-Cyclopropyl-1-[3-(3H-3,4,6,8-tetraazacyclopenta[a]naphthalen-9-yl)-piperidin-1-yl]-ethanone], the IC50 in test [1] is 1 to 20 nM; in test [2], greater than 20 nM; in test [3] it was greater than 20 nM.
`CC(C)NC(=O)N1CCCC(c2ncnc3cnc4[nH]ccc4c23)C1` (centres unmarked) [Ex. 32, 3-(3H-3,4,6,8-Tetraaza-cyclopenta[a]naphthalen-9-yl)-piperidine-1-carboxylic acid isopropylamide]: the IC50 in test [1], in test [2] and in test [3] was greater than 20 nM in each case.
For `CNC(=O)C1CCCN(c2ccnc3cnc4[nH]ccc4c23)C1` (centres unmarked) [Ex. 71, N-methyl-1-(3H-pyrrolo[3,2-f][1,7]naphthyridin-9-yl)piperidine-3-carboxamide], the IC50 in test [1], in test [2] and in test [3] was greater than 20 nM throughout.
Turning to `CS(=O)(=O)N1CCC[C@@H](c2ccnc3cnc4[nH]ccc4c23)C1` [Ex. 10B, (S)9-(1-methylsulfonyl-3-piperidyl)-3H-pyrrolo[3,2-f][1,7]naphthyridine], the IC50 in test [1], in test [2] and in test [3] was 1 to 20 nM each time.
As for `O=C(CC(F)(F)F)N1CC[C@H](c2ccnc3cnc4[nH]ccc4c23)C1` [Ex. 15A, (R)3,3,3-trifluoro-1-[3-(3H-pyrrolo[3,2-f][1,7]naphthyridin-9-yl)pyrrolidin-1-yl]propan-1-one], the IC50 in test [1], in test [2] and in test [3] was greater than 20 nM throughout.
On to `N#CCS(=O)(=O)N1CCN(c2ccnc3cnc4[nH]ccc4c23)CC1` [Ex. 105, 2-[4-(3H-pyrrolo[3,2-f][1,7]naphthyridin-9-yl)piperazin-1-yl]sulfonylacetonitrile], for which the values for the IC50 in test [1], in test [2] and in test [3] were 1 to 20 nM, greater than 20 nM and greater than 20 nM, respectively.
Consider `O=C(NC1CC1)C1CCCN(c2ccnc3cnc4[nH]ccc4c23)C1` (centres unmarked) [Ex. 61, N-cyclopropyl-1-(3H-pyrrolo[3,2-f][1,7]naphthyridin-9-yl)piperidine-3-carboxamide], for which the IC50 in test [2] and in test [3] was greater than 20 nM each time.
Take `O=C(NC1CC1)N1CCCC(c2ccnc3cnc4[nH]ccc4c23)C1` (centres unmarked) [Ex. 46, N-cyclopropyl-3-(3H-pyrrolo[3,2-f][1,7]naphthyridin-9-yl)piperidine-1-carboxamide]: the IC50 in test [2] and in test [3] was greater than 20 nM each time.
As for `O=C(OCC(F)(F)F)N1CCCC(c2ccnc3cnc4[nH]ccc4c23)C1` (centres unmarked) [Ex. 51, 2,2,2-trifluoroethyl 3-(3H-pyrrolo[3,2-f][1,7]naphthyridin-9-yl)piperidine-1-carboxylate], the IC50 in test [2] and in test [3] was 1 to 20 nM in each case.
Turning to `O=S(=O)(NC1CCN(c2ccnc3cnc4[nH]ccc4c23)C1)C1CC1` (centres unmarked) [Ex. 91, N-[1-(3H-pyrrolo[3,2-f][1,7]naphthyridin-9-yl)pyrrolidin-3-yl]cyclopropanesulfon-amide], the IC50 was 1 to 20 nM in test [2] and greater than 20 nM in test [3].
Regarding `N#CCS(=O)(=O)N1CC[C@@H](c2ccnc3cnc4[nH]ccc4c23)C1` [Ex. 16B, (S)2-[3-(3H-pyrrolo[3,2-f][1,7]naphthyridin-9-yl)pyrrolidin-1-yl]sulfonylacetonitrile], the IC50 in test [2] and in test [3] was greater than 20 nM throughout.
`COCCOC1CCCN(c2ccnc3cnc4[nH]ccc4c23)C1` (centres unmarked) [Ex. 57, 9-[3-(2-methoxyethoxy)-1-piperidyl]-3H-pyrrolo[3,2-f][1,7]naphthyridine]: the IC50 in test [2] and in test [3] was greater than 20 nM in each case.
For `O=S(=O)(CC(F)(F)F)NC1CCCN(c2ccnc3cnc4[nH]ccc4c23)C1` (centres unmarked) [Ex. 86, 2,2,2-trifluoro-N-[1-(3H-pyrrolo[3,2-f][1,7]naphthyridin-9-yl)-3-piperidyl] ethanesulfonamide], the IC50 in test [2] and in test [3] was 1 to 20 nM in each case.
`N#CCS(=O)(=O)N1CC[C@H](c2ccnc3cnc4[nH]ccc4c23)C1` [Ex. 16A, (R)2-[3-(3H-pyrrolo[3,2-f][1,7]naphthyridin-9-yl)pyrrolidin-1-yl]sulfonylacetonitrile]: the IC50 in test [2] was 1 to 20 nM; in test [3] it was greater than 20 nM.
Regarding `c1cc(N2CCCCC2)c2c(cnc3[nH]ccc32)n1` [Ex. 58, 9-(1-piperidyl)-3H-pyrrolo[3,2-f][1,7]naphthyridine], the IC50 in test [2] and in test [3] was 1 to 20 nM throughout.
Turning to `CC(C)(C)OC(=O)NC1CCN(c2ccnc3cnc4[nH]ccc4c23)C1` (centres unmarked) [Comp. 124, tert-Butyl N-[1-(3H-pyrrolo[3,2-f][1,7]naphthyridin-9-yl)pyrrolidin-3-yl]carbamate], the IC50 in test [2] and in test [3] was greater than 20 nM each time.
For the molecule `O=C(CC(F)(F)F)N1CC[C@@H](c2ccnc3cnc4[nH]ccc4c23)C1` [Ex. 15B, (S)3,3,3-trifluoro-1-[3-(3H-pyrrolo[3,2-f][1,7]naphthyridin-9-yl)pyrrolidin-1-yl]propan-1-one], the IC50 was 1 to 20 nM in test [2] and greater than 20 nM in test [3].
On the same counts, the results for `CC(C)S(=O)(=O)NC1CCN(c2ccnc3cnc4[nH]ccc4c23)C1` (centres unmarked) [Ex. 92, N-[1-(3H-pyrrolo[3,2-f][1,7]naphthyridin-9-yl)pyrrolidin-3-yl]propane-2-sulfonamide] are 1 to 20 nM and greater than 20 nM.
Take `CS(=O)(=O)N1CCC[C@H](c2ccnc3cnc4[nH]ccc4c23)C1` [Ex. 10A, (R)9-(1-methylsulfonyl-3-piperidyl)-3H-pyrrolo[3,2-f][1,7]naphthyridine]: the IC50 in test [2] and in test [3] was greater than 20 nM throughout.
